These results are taken from patent US11773063B1, “Pharmaceutically acceptable salts and compositions thereof” (priority 2022, dated 2023).

Data set [1] can be described thus: DVS double-cycle experiment (Example 3). It counts as physicochemical.
Data set [2] can be described thus: Thermo-Gravimetric Analysis (TGA), thermal stability. Conditions: for thermal stability up to (TGA) / start of decomposition / complete mass loss (TGA): 10° C./min; for thermal stability up to (TGA): nitrogen; for start of decomposition / complete mass loss (TGA): hydrochloride. The method, then: Thermo—Gravimetric Analysis (TGA)
TGA thermograms were obtained with a TA Instrument Discovery 550 in Al pans. The heating rate used was 10° C./min linear ramp from 25 to 400° C. with a nitrogen purging at a rate of 60 ml/min. TGA thermograms were analysed using TRIOS software.

Data set [3] is described as follows: Dynamic Vapor Sorption (DVS), salt screen and scale-up salts. Type of data set: physicochemical. Conditions: for moisture absorption at 70% RH / moisture absorption at 80% RH / water uptake up to 60% RH: first sorption isotherm; for deliquescence during DVS: high RH. The method, then:
Dynamic Vapor Sorption (DVS)
DVS analyses were performed on TA Instrument DVS Q5000. Samples were added to a pre-tared metallised quartz crucible and run at 25° C. from 40% RH to 90% RH, down to zero and back to 40%. This cycle was repeated in increments of 10% RH.

The format of data set [4] is physicochemical. Conditions: 40° C./75% RH, three days. The method, then: Physical Stability of Salts
Physical stability stress tests were conducted on generated crystalline salts at controlled temperature and relative humidity. The powder samples were stored at 40° C./75% RH for three days. After this time samples were analysed by XRPD to see whether the physical state of salts changed during the storage.

Data set [5] can be described thus: Polymorphism screen of hydrochloride and benzoate salts: thermal cycling, evaporation, antisolvent addition, cooling (XRPD). Type of data set: physicochemical. Conditions: for 3-day Observations: thermally cycled between ambient and 40° C., -17 Forma; for 3-day Observations / Initial Observations: -04 2-Ethoxyethanol; for Initial Observations: thermal cycle of lyophilised hydrochloride salt (~40 mg), solvent added, -17 Formamide. The method, then: Twenty five of the lyophilised samples were treated with solvent and thermally cycled between ambient and 40° C. with four hours spent under each condition. After three days and solids were isolated by centrifuge filtration and analysed by XRPD.
Twelve samples of the lyophilised material were treated with a minimal volume (ca 0.5 ml) of warm solvent, syringe filtered through a 0.22 µm filter and added to a clean HPLC vial and allowed to evaporate at RT. The solvents used and XRPD results following evaporation are detailed in the Table below:
Twelve samples of the lyophilised material were treated with a minimal volume (ca 0.5 ml) of warm solvent, syringe filtered through a 0.22 micrometre filter and added to a clean HPLC vial and allowed to evaporate at RT. The solvents used and XRPD results following evaporation are detailed in the Table below:
For antisolvent additions thirteen samples of the lyophilised material were dissolved in a small amount of hot solvent (^˜0.5 ml). […] A large excess of antisolvent was then added, the vials sealed. After storage at RT overnight, and samples where no solid had been produced were first cooled to 4° C. for ˜24 hrs, and again if no solid was produced, they were cooled to −18° C. Any solids were isolated by centrifuge filtration and analysed by XRPD.
For the cooling experiments twelve samples of the lyophilised material were dissolved in a small amount of hot solvent (^˜[…]) and syringe filtered through a 0.22 μm filter into a clean HPLC vial. Samples were allowed to cool to RT, and if no solid was produced to 4° C. and then to −18° C. Solids were isolated by centrifuge filtration and analysed by XRPD.

Data set [6] can be described thus: Storage at 40° C./75% RH and 25° C./97% RH for 7 days, XRPD and HPLC (Example 3). Type of data set: physicochemical. The method, then:
FIG. 128. XRPD diffractogram overlay of 5-MeO-DMT Phosphate Pattern 1 before and after storage at 25° C./97% RH and 40° C./75% RH for 7 days.
FIG. 139. XRPD diffractogram overlay of 5-MeO-DMT Tartrate Pattern 1 before and after storage at 25° C./97% RH and 40° C./75% RH for 7 days.
The sample is classed as slightly hygroscopic with a total reversible mass change of 0.3 wt. % between 0-90% RH. The DVS isotherm and DVS kinetic plot can be seen in FIGS. 124 and 125, respectively. The solid form was unchanged after a double-cycle experiment, the XRPD analysis confirming this can be seen in FIG. 126.
The sample is classed as slightly hygroscopic with a total reversible mass change of 0.6 wt. % between 0-90% RH (FIG. 135). The solid-form was unchanged after the double-cycle experiment (FIG. 136).

A short description of data set [7]: Solubility assessment in four different media. It counts as physicochemical. To be noted: four media: SNF, pH 1.2, pH 4.5 and pH 6.8 media, 37 °C, aqueous buffer, thermodynamic from solid; four different media. The method, then:
Solubility assessments of 5-MeO-DMT oxalate, hydrobromide fumarate and benzoate were performed in four different media: […]

Counter-ions that a name gives are not always drawn. A value given as a limit tells only on which side of the number the result lay.

As to `COc1ccc2[nH]cc(CCN(C)C)c2c1` [Phosphate Pattern 1, 5-MeO-DMT phosphate], the “total reversible mass change between 0-90% RH” value in data set [1] (DVS) was determined as 0.3 wt. %.

With `COc1ccc2[nH]cc(CCN(C)C)c2c1` [glycolate salt, 5-MeO-DMT glycolate], the “thermal stability up to (TGA)” value in data set [2] was “around 155 °C”. In data set [3] (25° C.), the “moisture absorption at 70% RH” value is 11 % w/w, the “moisture absorption at 80% RH” value worked out at 33 % w/w, the “water uptake up to 60% RH” value was 2.3 % w/w and the “deliquescence during DVS” value is given as “begins to deliquesce”.

Turning to `COc1ccc2[nH]cc(CCN(C)C)c2c1` [Benzenesulfonate salt, 5-MeO-DMT benzenesulfonate], the “thermal stability up to (TGA)” value in data set [2] was determined as 250 °C. In data set [3] (25° C.), the “moisture absorption at 70% RH” value worked out at 7 % w/w, the “moisture absorption at 80% RH” value is 14 % w/w, the “water uptake up to 60% RH” value was determined as 1.2 % w/w and the “deliquescence during DVS” value is “begins to deliquesce”.

Consider `COc1ccc2[nH]cc(CCN(C)C)c2c1` [Tosylate salt, 5-MeO-DMT tosylate], for which the “crystalline form after storage (XRPD)” value in data set [4] is on record as “identical XRPD pattern as the input material”. The “change of crystalline form during the DVS experiment (DVS / post-DVS XRPD)” value in data set [3] is “did not undergo any solid-state changes”. For the same compound, the hygroscopicity class entry in data set [3] (DVS, 25° C.) was “slightly hygroscopic (Pharmaceuticals that pick up between 0.2% and 2.0% moisture at 80% RH are considered slightly hygroscopic)”.

As for `COc1ccc2[nH]cc(CCN(C)C)c2c1.Cl` [Hydrochloride pattern 2, 5-MeO-DMT hydrochloride], the “XRPD Result” value in data set [5] (hydrochloride salt, solid isolated after thermal cycle between ambient and 40° C., three days, solvent per experiment: -01 1,4-Dioxane, -02 1-Propanol, -03 2-Butanol, -05 2-Methyltetrahydrofuran, -06 2-Propanol, -07 Acetone, -08 Acetonitrile, -09 Anisole, -10 Chlorobenzene, -11 Ethanol, -12 Ethyl acetate, -13 Isopropyl acetate, -14 Methanol, -15 Propyl acetate, -16 Methylethyl ketone, -20 iso-Prop, listed as DJP2202-007-01, hydrochloride) is on record as “Pattern 2”. Further, the “3-day Observations” value in data set [5] (hydrochloride salt, three days, solvent per experiment: -01 1,4-Dioxane, -02 1-Propanol, -03 2-Butanol, -05 2-Methyltetrahydrofuran, -06 2-Propanol, -07 Acetone, -08 Acetonitrile, -09 Anisole, -10 Chlorobenzene, -11 Ethanol, -12 Ethyl acetate, -13 Isopropyl acetate, -14 Methanol, -15 Propyl acetate, -16 Methylethyl ketone, listed as DJP2202-007-01, hydrochloride) is recorded as “solid mass”. The “Initial Observations” value in data set [5] (solvent per experiment: -01 1,4-Dioxane, -02 1-Propanol, -03 2-Butanol, -05 2-Methyltetrahydrofuran, -06 2-Propanol, -07 Acetone, -08 Acetonitrile, -09 Anisole, -10 Chlorobenzene, -11 Ethanol, -12 Ethyl acetate, -13 Isopropyl acetate, -14 Methanol, -15 Propyl acetate, -16 Methylethyl ketone, listed as DJP2202-007-01, hydrochloride) was “no change”. The “start of decomposition / complete mass loss (TGA)” value in data set [2] was “around 256 °C”.

With `COc1ccc2[nH]cc(CCN(C)C)c2c1.Cl` [Hydrochloride pattern 3, 5-MeO-DMT hydrochloride], in data set [5] (hydrochloride salt, solid isolated after thermal cycle between ambient and 40° C., three days, solvent per experiment: -01 1,4-Dioxane, -02 1-Propanol, -03 2-Butanol, -05 2-Methyltetrahydrofuran, -06 2-Propanol, -07 Acetone, -08 Acetonitrile, -09 Anisole, -10 Chlorobenzene, -11 Ethanol, -12 Ethyl acetate, -13 Isopropyl acetate, -14 Methanol, -15 Propyl acetate, -16 Methylethyl ketone, -20 iso-Prop, listed as DJP2202-007-14, hydrochloride), the “XRPD Result” value is “Pattern 3”. In addition, in data set [5] (hydrochloride salt, three days, solvent per experiment: -01 1,4-Dioxane, -02 1-Propanol, -03 2-Butanol, -05 2-Methyltetrahydrofuran, -06 2-Propanol, -07 Acetone, -08 Acetonitrile, -09 Anisole, -10 Chlorobenzene, -11 Ethanol, -12 Ethyl acetate, -13 Isopropyl acetate, -14 Methanol, -15 Propyl acetate, -16 Methylethyl ketone, listed as DJP2202-007-14, hydrochloride), the “3-day Observations” value is on record as “clear solution”. Further, the “Initial Observations” value in data set [5] (solvent per experiment: -01 1,4-Dioxane, -02 1-Propanol, -03 2-Butanol, -05 2-Methyltetrahydrofuran, -06 2-Propanol, -07 Acetone, -08 Acetonitrile, -09 Anisole, -10 Chlorobenzene, -11 Ethanol, -12 Ethyl acetate, -13 Isopropyl acetate, -14 Methanol, -15 Propyl acetate, -16 Methylethyl ketone, listed as DJP2202-007-14, hydrochloride) is on record as “dissolved”. Further, the “start of decomposition / complete mass loss (TGA)” value in data set [2] was “around 260 °C”.

Regarding `COc1ccc2[nH]cc(CCN(C)C)c2c1.O=P(O)(O)O` [DR-2186-48-01], the “GVS hygroscopicity class (European Pharmacopeia definitions)” value in data set [1] is “slightly hygroscopic (based on European Pharmacopeia (Pharmaceuticals that pick up between 0.2% and 2.0% moisture at 80% RH are considered slightly hygroscopic)”. In addition, the “GVS total mass change as mol eq. water” value in data set [1] (from 0-90% RH) was 0.06 mol eq. water. The “GVS total mass change” value in data set [1] (from 0-90% RH, double cycle) stood at 0.34 wt. %. Also, in data set [2], the TGA decomposition onset was 130-170 °C Decomposition onset from 180 °C. The “TGA further mass lost during the melt” value in data set [2] (130-170° C.) was “further 0.95% (0.1 mol eq. MeOH) was lost during the melt,”. Moreover, the TGA mass loss in data set [2] (from 40-125° C.) is 0.4 wt. % (0.04 mol. eq. MeOH) mass loss from 40-125 °C A. In addition, the “Static Storage 7 days - 25° C./97% RH, XRPD” value in data set [6] (25° C./97% RH) is “XRPD - PHO Pattern 1”. In addition, in data set [6] (25° C./97% RH, HPLC purity), the “Static Storage 7 days - 25° C./97% RH, HPLC” value is listed as “HPLC - 98.0%”. In addition, the “Static Storage 7 days - 40° C./75% RH, XRPD” value in data set [6] (40° C./75% RH) is listed as “XRPD - PHO Pattern 1”. Moreover, the “Static Storage 7 days - 40° C./75% RH, HPLC” value in data set [6] (40° C./75% RH, HPLC purity) is “HPLC - 98.1%”.

Consider `COc1ccc2[nH]cc(CCN(C)C)c2c1` [Phosphate salt, 5-MeO-DMT phosphate], for which, in data set [4], the “crystalline form after storage (XRPD)” value was “did not undergo any transformation”. In addition, in data set [3], the “change of crystalline form during the DVS experiment (DVS / post-DVS XRPD)” value is “no evidence of form change”.

For the compound `COc1ccc2[nH]cc(CCN(C)C)c2c1.O=C(O)CC(O)C(=O)O` [Malate salt, 5-MeO-DMT malate], the “crystalline form after storage (XRPD)” value in data set [4] is listed as “conversion to a “gum” material”. In data set [2], the “thermal stability up to (TGA)” value is “around 170 °C”.

For `COc1ccc2[nH]cc(CCN(C)C)c2c1.O=C(O)c1ccccc1` [benzoate salt, 5-MeO-DMT benzoate], the “XRPD Result” value in data set [5] (evaporation at RT of lyophilised benzoate salt from 1-PrOH (DJP2202-010-02)) is given as “Oil”; in data set [5] (evaporation at RT of lyophilised benzoate salt from EtOH (DJP2202-010-05)), “Oil”; in data set [5] (evaporation at RT of lyophilised benzoate salt from IPA (DJP2202-010-06)), “Pattern 4”; in data set [5] (evaporation at RT of lyophilised benzoate salt from IPAc (DJP2202-010-10)), “Pattern 2”; in data set [5] (evaporation at RT of lyophilised benzoate salt from MEK (DJP2202-010-11)) it was “Pattern 4”; in data set [5] (evaporation at RT of lyophilised benzoate salt from MIBK (DJP2202-010-04)) it was “Oil”. The “XRPD Result” value in data set [5] (evaporation at RT of lyophilised benzoate salt from MeCN (DJP2202-010-12)), in data set [5] (evaporation at RT of lyophilised benzoate salt from THF (DJP2202-010-07)), in data set [5] (evaporation at RT of lyophilised benzoate salt from chlorobenzene (DJP2202-010-09)) and in data set [5] (evaporation at RT of lyophilised benzoate salt from dioxane (DJP2202-010-08)) was “Pattern 4” each time. In data set [7], the solubility (commonly the concentration that dissolves in the medium under given conditions) was at least 100 mg/mL.
